In US12661347B2 (Dr. Falk Pharma GmbH, priority 2020, dated 2026):
Read-outs that look alike come from different tables or passages of the source.

Columns and labels:
[1] = molecular target: T1, TG2 (Homo sapiens, UniProt P21980); assay: Correlation of human pharmacokinetic data with in vitro TG2 inhibition (TG2-mediated deamidation of gluten)
T1 sequence (P21980 1-687): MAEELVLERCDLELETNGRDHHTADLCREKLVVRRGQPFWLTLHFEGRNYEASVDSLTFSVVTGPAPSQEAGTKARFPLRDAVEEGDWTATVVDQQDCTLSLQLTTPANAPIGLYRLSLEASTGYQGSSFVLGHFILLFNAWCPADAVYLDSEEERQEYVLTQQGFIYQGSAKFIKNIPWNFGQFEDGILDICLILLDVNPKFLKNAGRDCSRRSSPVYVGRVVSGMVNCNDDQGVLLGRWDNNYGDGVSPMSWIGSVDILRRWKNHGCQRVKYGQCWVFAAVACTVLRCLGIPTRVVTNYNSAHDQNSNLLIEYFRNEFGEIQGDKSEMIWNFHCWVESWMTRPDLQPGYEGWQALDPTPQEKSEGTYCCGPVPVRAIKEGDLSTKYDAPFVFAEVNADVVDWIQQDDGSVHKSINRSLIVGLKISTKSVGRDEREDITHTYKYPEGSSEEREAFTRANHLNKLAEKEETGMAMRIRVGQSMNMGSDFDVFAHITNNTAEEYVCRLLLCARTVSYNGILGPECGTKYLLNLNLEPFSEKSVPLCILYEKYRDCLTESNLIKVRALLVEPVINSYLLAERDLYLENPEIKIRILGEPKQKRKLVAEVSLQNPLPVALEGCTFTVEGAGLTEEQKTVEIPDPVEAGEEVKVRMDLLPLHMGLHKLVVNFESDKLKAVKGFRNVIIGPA
Excerpt: For the estimation of the therapeutic effective human dose, the drug concentration determined in vivo is compared with the drug concentrations resulting in an inhibition of the enzyme activity of TG2 in vitro (FIG. 2). Thereby, the TG2-mediated deamidation of gluten serves as a marker reaction. […] The 90% inhibition at IC90 can be regarded as maximal pharmacodynamic effect.

[2] = Pharmacokinetic after oral administration of the systemic formulation in healthy volunteers (plasma, HPLC-MS/MS); type: in vivo, human
Experimental: The pharmacokinetic of (S,E)-methyl-7-(1-(2-(2-ethylbutylamino)-2-oxoethyl)-2-oxo-1,2-dihydro-pyridin-3-ylamino)-6-(1-methyl-1H-imidazole-5-carboxamido)-7-oxohept-2-enoate (compound of formula (I)) was investigated in healthy volunteers. Cohorts of 18 subjects each were treated with an oral daily dose of 10, 20, 50 and 100 mg compound of formula (I), respectively over a time period of 7 days.
The determination of said compound in blood plasma was performed by means of a previously validated HPLC-MS/MS method.

[3] = Comparison of Cmax of the formulation (human) with the plain compound (animals), doses as human-equivalent-dose; type: in vivo, human; monkeys, pigs, rabbits, rats and mice; conditions: formulation in human vs drug as suspension in animals
Experimental: Due to regulatory and ethical reasons pharmacokinetic data with the plain compound were only generated in animals but not in human subjects. The pharmacokinetic data of the plain compound were derived from several studies in monkeys, pigs, rabbits, rats and mice. In all studies the compound was administered orally after suspension in 0.5% (w/v) methylcellulose in water, pH 5±0.5. Blood samples were taken at various time points within 24 h after drug administration and quantified by means of a previously validated HPLC-MS/MS method. […] In order to compile the data from different species, doses were converted into human-equivalent-dose (HED) taking into account differences in the body surface area between species. The widely accepted species-specific conversion factors defined in the FDA guideline “Estimating the Maximum Safe Starting Dose in Initial Clinical Trials for Therapeutics in Adult Healthy Volunteers” (Issue date 2005) were used.

[4] = Saturation solubility in the pH-range 1 to 6.8 (HPLC/UV); type: physicochemical
[5] = Simulation of the gastrointestinal tract, transfer model (donor medium to FaSSIF acceptor medium); type: physicochemical
Experimental: The solubility of the dose as well as the dissolution velocity under physiological conditions are critical parameters for the oral availability at the target site.
The transfer model consists of a vessel with 125 ml donor medium and a vessel with 500 m acceptor medium. The donor medium is transferred by means of pump (Piston pump Sotax CP7) in the acceptor medium so that 625 ml liquid is present in the acceptor vessel at the end of the experiment. The transfer rate amounts 10 ml/min. The donor medium is an artificial gastric juice in a sober state, and contains 34.2 mM sodium chloride (NaCl) in 0.1 hydrogen chloride (HCl). The acceptor medium consists of artificial […] in a sober state (FaSSIF) and contains 3 mM sodium taurocholate, and […] lecithine in phosphate buffer with a pH-value of 6.5. The temperature of the acceptor medium is adjusted to 37.5° C.±0.5° C. For the simulation of the gastrointestine motility, the acceptor medium is stirred continuously with a stirring paddle (50 rpm). A calibrated stirring paddle apparatus 2 according to the conditions of the USP (Sotax AT7 Smart) as an acceptor vessel is used. In FIG. 5, a scheme of the apparatus is illustrated.
The capsule was added to the donor medium.

[6] = test system: adult patients with Celiac Disease (CeD); assay: 6-week treatment of adult Celiac Disease patients challenged with 3 g daily gluten, placebo-controlled; type: in vivo, human
Experimental: Patients, who were in clinical and histological remission at start of the study were challenged with 3 grams daily gluten intake and randomized to receive placebo or one of 3 doses of the compound of formula (I), i.e. 10 mg, 50 mg or 100 mg.
Each morning after at least 6 hours of fasting, patients took the study drug orally, followed by one biscuit containing 3 g of gluten 30 minutes later, before breakfast. Throughout the 6-week study, patients were required to continue their strict gluten free diet.
The primary endpoint of the study was, whether the compound of formula (I) could prevent gluten-induced change in intestinal mucosal morphology. Before start (baseline) and after end of the 6 weeks of treatment endoscopies were conducted by an experienced gastroenterologist. Four endoscopy forceps biopsy samples with one biopsy bite per pass were taken from the second and third part of the duodenum and preserved in a PAXgene fixative containers. Tissue slides of the biopsies were scanned as whole-slide images and the villous height (VH) and crypt depth (CrD) in the mucosal samples were measured. In addition, the density of CD3+ intra-epithelial lymphocytes (IELs), an indicator of inflammation, was counted. Symptoms of CeD the patients were recorded by patient-reported outcomes (PROs) and measured by the Celiac Symptom Index (CSI) (Ref1) and Celiac Disease Questionnaire (CDQ) (Ref2).

[7] = Side effects in humans at doses of up to 500 mg; type: in vivo
Experimental: Moreover, side effects related to potential off-target actions were not observed in humans even at doses of up to 500 mg. As aforementioned, this is particularly surprising due to the fact that TG2 is ubiquitously expressed in almost all cell types and cell compartments, it is present on the cell surface and gets secreted to the extracellular matrix, and is present in various organs, and thus it could be envisioned that off-target effects would be most likely.

[8] = molecular target: T2, small intestinal tissue transglutaminase (TG2) (Mus musculus, UniProt P21981); conditions: plain, unformulated compound, cited from earlier work
T2 construct: from tissue; host or cells: small intestine (jejunum) and colon of the treated animals
T2 sequence (P21981 1-686): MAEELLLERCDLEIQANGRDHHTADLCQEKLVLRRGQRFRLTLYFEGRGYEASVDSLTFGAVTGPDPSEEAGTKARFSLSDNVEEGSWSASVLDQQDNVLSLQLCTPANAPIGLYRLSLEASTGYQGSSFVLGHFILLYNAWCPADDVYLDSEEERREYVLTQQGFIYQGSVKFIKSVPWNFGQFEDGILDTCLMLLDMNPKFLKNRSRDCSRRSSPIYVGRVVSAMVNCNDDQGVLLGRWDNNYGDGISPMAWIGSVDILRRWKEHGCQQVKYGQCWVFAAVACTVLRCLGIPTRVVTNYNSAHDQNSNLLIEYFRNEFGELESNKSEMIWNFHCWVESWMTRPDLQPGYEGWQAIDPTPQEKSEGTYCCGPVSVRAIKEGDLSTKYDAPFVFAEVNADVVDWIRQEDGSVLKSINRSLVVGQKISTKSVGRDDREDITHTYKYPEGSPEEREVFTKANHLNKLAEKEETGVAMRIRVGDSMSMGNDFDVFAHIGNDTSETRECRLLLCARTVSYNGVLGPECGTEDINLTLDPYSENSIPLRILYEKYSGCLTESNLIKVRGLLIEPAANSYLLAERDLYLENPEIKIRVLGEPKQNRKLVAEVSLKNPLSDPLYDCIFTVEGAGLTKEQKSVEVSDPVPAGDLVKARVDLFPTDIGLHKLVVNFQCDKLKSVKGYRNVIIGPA

For `CCC(CC)CNC(=O)Cn1cccc(NC(=O)[C@H](CC/C=C/C(=O)OC)NC(=O)c2cncn2C)c1=O` [(S,E)-methyl-7-(1-(2-(2-ethylbutylamino)-2-oxoethyl)-2-oxo-1,2-dihydro-pyridin-3-ylamino)-6-(1-methyl-1H-imidazole-5-carboxamido)-7-oxohept-2-enoate], the “dose sufficient to achieve a therapeutic effective drug concentration” value ([1]; human) was 20 to 50 mg.
In the case of `CCC(CC)CNC(=O)Cn1cccc(NC(=O)[C@H](CC/C=C/C(=O)OC)NC(=O)c2cncn2C)c1=O` [compound of formula (I), (S,E)-methyl-7-(1-(2-(2-ethylbutylamino)-2-oxoethyl)-2-oxo-1,2-dihydro-pyridin-3-ylamino)-6-(1-methyl-1H-imidazole-5-carboxamido)-7-oxohept-2-enoate], the “increase of drug concentration with dose” value ([2]; dose range 10-100 mg, formulation) is reported as “dose-proportionally”, the Tmax ([2]; human, plasma, oral daily dose 10, 20, 50, 100 mg for 7 days, hard gelatine capsule of example 2, read-out: tmax (maximum of plasma drug level after administration)) is reported as ~1 h and the “drug level in vivo compared with in vitro TG2 inhibition” value ([1]; dose of 10 mg) is reported as “half maximal inhibition (IC50) of TG2 is already achieved”. For the same molecule, the “drug level in vivo compared with in vitro TG2 inhibition” value ([1]; dose of 50 mg of the new developed formulation) was “exceeding the IC90”, the “drug concentration normalized to body weight versus animal studies with suspension” value [3] was “remarkably higher” and the “saturation solubility at pH=6.8 (duodenum) compared with pH~1” value [4] was “much lower”. For the same molecule, the solubility ([5]; FaSSIF (acceptor medium), FaSSIF, phosphate buffer pH 6.5, read-out: solubility in the acceptor medium) was 200 µg/mL, the solubility ([5]; FaSSIF medium, pH 6.5, fassif, thermodynamic from solid, pH-value of 6.5, read-out: saturation solubility of the pure drug) was 180 µg/mL and the solubility ([5]; artificial gastric juice, sober state (donor medium), simulated gastric fluid, 34.2 mM NaCl in 0.1 HCl, read-out: solubility in the donor medium) was 4400 µg/mL. The “effect of gluten on VH:CrD (mucosal deterioration)” value ([6]; 10 mg dose, baseline to week 6) was “prevented mucosal deterioration to a lesser degree”, the “CDQ scores, change from baseline to week 6” value ([6]; 10 mg, 50 mg and 100 mg groups, increase = better quality of life) was “increased” and the “effect of gluten on VH:CrD (villus height-to-crypt depth ratio)” value ([6]; daily dose 50 mg, baseline to week 6) was “almost completely prevented the deleterious effect of gluten on VH:CrD”. For the same molecule, the “effect of gluten on VH:CrD (villus height-to-crypt depth ratio)” value ([6]; daily dose 100 mg, baseline to week 6) was “almost completely prevented the deleterious effect of gluten on VH:CrD”, the “gluten-induced symptoms and quality of life” value ([6]; hard gelatine capsule formulation of example 2) was “significantly improved” and the “safety profile (frequency and severity of adverse events)” value ([6]; hard gelatine capsule formulation of example 2, 6 weeks) was “comparable to placebo”. For the same molecule, the intestinal mucosal injury ([6]; hard gelatine capsule formulation of example 2, moderate dose of daily gluten) was “effectively prevented intestinal mucosal injury”, the “side effects related to potential off-target actions” value [7] was “not observed” and the “activity of intestinal TG2” value ([8]; TG2 activated by poly(I:C)) was “reduced the activity of intestinal TG2 to normal levels”. The intestinal inflammation [8] was “subdued intestinal inflammation” and the safety of administration [8] was “safe”.
